From ChEMBL document CHEMBL1201862, “PubChem BioAssay data set” (2004)
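How tested: cells in 96-well plates exposed to compound for 48 hours at five concentrations. GI50: concentration for 50% inhibition of growth.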 The source made the active and inactive calls. No stated cut-off is given here; in the data, active = GI50 up to about 1.1 µM and inactive = higher. Where a SMILES comes first, the peptide text is derived from it. The star is where a group is joined. Cbz = O=C(OCc1ccccc1)*; NHNH2 = NN*

Key:
Experiment in all cases: inhibition of tumour cell growth, NCI panel, 48 h
[1] = tested on: A498
[2] = tested on: COLO 205
[3] = tested on: HCT-15
[4] = tested on: M14
[5] = tested on: MDA-N
[6] = tested on: Malme-3M
[7] = tested on: NCI-H460
[8] = tested on: PC-3
[9] = tested on: SK-MEL-5
[10] = tested on: SNB-75
[11] = tested on: UO-31
[12] = tested on: CCRF-CEM
[13] = tested on: DU-145
[14] = tested on: MDA-MB-435
[15] = tested on: NCI/ADR-RES
[16] = tested on: T47D

Structure (SMILES)	GI50 [1]	GI50 [2]	GI50 [3]	GI50 [4]	GI50 [5]	GI50 [6]	GI50 [7]	GI50 [8]	GI50 [9]	GI50 [10]	GI50 [11]	GI50 [12]	GI50 [13]	GI50 [14]	GI50 [15]	GI50 [16]
CCOC(=O)CCC(NC(=O)OCc1ccccc1)C(=O)NC(CCC(=O)OCC)C(=O)NN (stereo not drawn) (Cbz-Glu(OEt)-Glu(OEt)-NHNH2; configuration not given here)	> 100 µM (inactive)	> 100 µM (inactive)	> 100 µM	> 100 µM (inactive)	> 100 µM (inactive)	> 100 µM (inactive)	> 100 µM (inactive)	> 100 µM (inactive)	> 100 µM (inactive)	> 100 µM (inactive)	> 100 µM (inactive)					
Clc1ccc(-c2nn3c(-c4ccncc4)nnc3s2)cc1		> 100 µM (inactive)	16.4 µM	> 100 µM (inactive)	> 100 µM (inactive)	> 100 µM (inactive)	> 100 µM (inactive)	> 100 µM (inactive)	> 100 µM (inactive)		> 100 µM (inactive)	> 100 µM (inactive)	42.9 µM (inactive)	> 100 µM (inactive)	> 100 µM (inactive)	> 100 µM (inactive)
CCCCn1c(C)c(C(=O)CC)c(C(=O)NCCN2CCN(c3ccccc3Cl)CC2)c1C	17.5 µM (inactive)	13.9 µM (inactive)	15.7 µM	17.6 µM (inactive)	16.2 µM (inactive)	18.1 µM (inactive)	15.3 µM (inactive)	16.1 µM (inactive)	14.1 µM (inactive)		12.8 µM (inactive)	55.1 µM (inactive)	20.1 µM (inactive)	18.9 µM (inactive)	16 µM (inactive)	21.8 µM (inactive)
COc1ccc(C2NC(N)=C(C#N)C3=C2C(C)CCC3)cc1OC (stereo not drawn)		37.3 µM (inactive)	44.3 µM	59.2 µM (inactive)	> 100 µM (inactive)	28.6 µM (inactive)		44.8 µM (inactive)	24.2 µM (inactive)	1.44 µM (inactive)	4.65 µM (inactive)	14.6 µM (inactive)	> 100 µM (inactive)	63.5 µM (inactive)	35.2 µM (inactive)	2.96 µM (inactive)
NNC(=O)c1ccc(OCc2nc3ccccc3[nH]2)cc1	> 100 µM (inactive)	71.4 µM (inactive)	> 100 µM	53.1 µM (inactive)	> 100 µM (inactive)	> 100 µM (inactive)	31.8 µM (inactive)	> 100 µM (inactive)	27.9 µM (inactive)		48.5 µM (inactive)		94.2 µM (inactive)	> 100 µM (inactive)	> 100 µM (inactive)	53.7 µM (inactive)
COC(=O)C[C@H](COCc1ccccc1)NC(=O)C[C@H](COCc1ccccc1)NC(=O)OC(C)(C)C	27.1 µM (inactive)	> 100 µM (inactive)	30.7 µM	32.8 µM (inactive)		36.6 µM (inactive)		26.9 µM (inactive)	45.8 µM (inactive)	25.1 µM (inactive)	32.5 µM (inactive)	> 100 µM (inactive)	22.4 µM (inactive)	34 µM (inactive)	21.8 µM (inactive)	33.9 µM (inactive)
CCCCNC(=O)Nc1c(C(N)=O)c2n(c1C(=O)OCC)CCCCC2	> 100 µM (inactive)	> 100 µM (inactive)	> 100 µM	> 100 µM (inactive)			> 100 µM (inactive)	> 100 µM (inactive)	> 100 µM (inactive)	> 100 µM (inactive)	> 100 µM (inactive)	> 100 µM (inactive)	> 100 µM (inactive)	> 100 µM (inactive)	> 100 µM (inactive)	> 100 µM (inactive)
O=C1NC(=O)C(C(CC(=O)c2ccc(Cl)cc2)c2ccc(Cl)cc2)C(=O)N1 (stereo not drawn)	> 100 µM (inactive)		> 100 µM	> 100 µM (inactive)	92 µM (inactive)	0.225 µM (active)	> 100 µM (inactive)	> 100 µM (inactive)	> 100 µM (inactive)	> 100 µM (inactive)	> 100 µM (inactive)	42.2 µM (inactive)	> 100 µM (inactive)	89.1 µM (inactive)		
OCC1OC(n2nc(-c3ccccc3)nc2-c2cnccn2)C(O)C(O)C1O (stereo not drawn)		> 100 µM (inactive)	> 100 µM	> 100 µM (inactive)	> 100 µM (inactive)		> 100 µM (inactive)	> 100 µM (inactive)	> 100 µM (inactive)	> 100 µM (inactive)	> 100 µM (inactive)	> 100 µM (inactive)	> 100 µM (inactive)	> 100 µM (inactive)	> 100 µM (inactive)	> 100 µM (inactive)
